Here are results for twelve compounds from patent publication US20070225256A1, “COMPOUND” (priority 2004, published 2007).

Like-named read-outs stand apart in the source and are kept apart here. Bounds are passed on as bounds.

One data set concerns MCF-7. Put plainly: Inhibition of MCF-7 cell proliferation. Type of data set: cell-based. The note with it: for IC50: read-out: Concentration for 50% inhibition of MCF-7 proliferation. How it is done: MCF-7 breast cancer cells are seeded into multi-well culture plates at a density of 10^5 cells/well. Cells were allowed to attach and grown until about 30% confluent when they are treated as follows:
Cells are grown for 6 days in growth medium containing the COI with changes of medium/COI every 3 days. At the end of this period cell numbers were counted using a Coulter cell counter.
Inhibition of MCF-7 Cell Proliferation

For data set [1] the following is noted: cited from earlier work.
The target in data set [2] is T1, E1-STS (Homo sapiens, UniProt P08842).
T1 sequence (P08842 22-583): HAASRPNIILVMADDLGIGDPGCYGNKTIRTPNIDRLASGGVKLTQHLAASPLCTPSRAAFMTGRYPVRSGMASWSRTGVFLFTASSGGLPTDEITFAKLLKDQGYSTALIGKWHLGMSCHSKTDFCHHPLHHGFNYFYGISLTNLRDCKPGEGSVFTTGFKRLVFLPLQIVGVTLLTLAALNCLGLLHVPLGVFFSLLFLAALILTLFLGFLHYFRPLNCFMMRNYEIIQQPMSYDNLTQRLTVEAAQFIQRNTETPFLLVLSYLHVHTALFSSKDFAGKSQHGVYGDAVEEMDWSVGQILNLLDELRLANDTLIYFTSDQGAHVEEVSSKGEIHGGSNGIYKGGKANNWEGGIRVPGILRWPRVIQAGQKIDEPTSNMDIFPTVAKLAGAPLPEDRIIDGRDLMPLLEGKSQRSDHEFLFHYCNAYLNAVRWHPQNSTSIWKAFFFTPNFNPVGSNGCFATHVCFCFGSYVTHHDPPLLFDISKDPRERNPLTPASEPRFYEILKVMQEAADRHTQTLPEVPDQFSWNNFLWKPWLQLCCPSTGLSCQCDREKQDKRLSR
Further details: endogenous in cells; host or cells: MCF-7. The note with it: 0.1 nM; cited from earlier work.

Data set [3] has as its target T1, E1-STS. The note with it: compared with EMATE; cited from earlier work.
The next data set concerns the target T2, steroid sulphatase (Homo sapiens, UniProt P08842).
T2 sequence (P08842 22-583): T1 sequence (P08842 22-583)
Particulars: compared with EMATE; cited from earlier work.

The conditions of data set [4]: cited from earlier work. The source holds these as a separate data set.

Take `CCc1cc2c(cc1OS(N)(=O)=O)CC[C@@H]1[C@@H]2CC[C@]2(C)[C@@H](CC(C)=O)CC[C@@H]12` [Compound 29, 2-Ethyl-3-O-sulfamoyl-17β-(2-oxopropyl) estrone]: the “% Inhibition of MCF-7 proliferation at 10 μM” value (shortened to “% Inhibition”) in the data set on MCF-7 stood at 69%.

Turning to `CC12CCC3c4ccc(OS(N)(=O)=O)cc4CCC3C1CCC2=O` (centres unmarked) [EMATE, oestrone-3-sulphamate], the “oral uterotrophic activity relative to estradiol” value in data set [1] (rats, oral) is recorded as 100 times. Besides, the “inhibition of E1-STS activity in intact MCF-7 cells” value at E1-STS [2] is listed as “more than 99%”.

Take `CCc1cc2c(cc1OS(N)(=O)=O)CC[C@@H]1[C@@H]2CC[C@]2(C)C(CS(C)(=O)=O)CC[C@@H]12` (some centres unmarked) [Compound 8, 2-Ethyl-3-O-sulfamoyl-17-methanesulfonylmethyl estrone]: the “% Inhibition” value in the data set with MCF-7 is reported as 79%.

As for `CCc1cc2c(cc1OS(N)(=O)=O)CC[C@@H]1[C@@H]2CC[C@]2(C)[C@@H](CC)CC[C@@H]12` [Compound 11, 2-Ethyl-3-O-sulfamoyl-17-β-ethyl-17-deoxy estrone], the “% Inhibition” value with MCF-7 came to 83%.

Regarding `CCc1cc2c(cc1OS(N)(=O)=O)CC[C@@H]1[C@@H]2CC[C@]2(C)[C@@H](C[N+](=O)[O-])CC[C@@H]12` [Compound 23, 2-Ethyl-3-O-sulfamoyl-17β-nitromethyl-17-deoxy estrone], the “% Inhibition” value in the data set with MCF-7 was less than 50%.

As to oestrone-3-N-sulphamate, the E1-STS inactivation result on E1-STS [3] is on record as “weaker non-time-dependent inactivators”.

Consider `COc1cc2c(cc1O)CCC1C2CC[C@@]2(C)C1CC[C@@H]2OC(N)=O` (some centres unmarked) [Compound 57, 2-Methoxy-estradiol-17-carbamate], for which, in the data set on MCF-7 (Homo sapiens, MCF7), the IC50 stood at 44 µM.

Turning to `COc1cc2c(cc1OS(N)(=O)=O)CC[C@@H]1[C@@H]2CC[C@]2(C)C(=O)CC[C@@H]12` [2-methoxyoestrone-3-O-sulphamate], the oestrogenicity entry in data set [1] (rat, in vivo) was “devoid of oestrogenicity”. Also, on steroid sulphatase, the “potency as a steroid sulphatase inhibitor” value was “equipotent with EMATE”.

Regarding `COc1cc2c(cc1OS(N)(=O)=O)CC[C@@H]1[C@@H]2CC[C@]2(C)[C@@H](OC(N)=O)CC[C@@H]12` [Compound 58, 2-Methoxy-3-O-sulfamoyl estradiol-17-carbamate], the IC50 with MCF-7 is 1.8 µM.

On to `C[C@]12CC[C@@H]3c4ccc(OS(=O)(=O)O)cc4CC[C@H]3[C@@H]1CCC2=O` [Compound E1S, oestrone sulphate], for which the half-life in blood in data set [4] was 10 to 12 h.

Turning to `CCc1cc2c(cc1OS(N)(=O)=O)CC[C@@H]1[C@@H]2CC[C@]2(C)[C@@H](CCF)CC[C@@H]12` [Compound 14, 2-Ethyl-3-O-sulfamoyl-17β-(2-fluoro-ethyl)-17-deoxy estrone], in the data set with MCF-7, the “% Inhibition” value is 89%.

Consider oestrone-3-S-sulphamate, for which the E1-STS inactivation entry on E1-STS [3] was “weaker non-time-dependent inactivators”.
